Laboratory results reported in PubChem BioAssay AID623927 (Vanderbilt Specialized Chemistry Center, 2012).

Legend:
[1] = PubChem AID 623927; settings: Ricerca radioligand binding panel, 10 uM, % inhibition, stronger effect = higher value
[2] = molecular target: 5-hydroxytryptamine receptor 1A (Homo sapiens) (UniProt P08908); assay: PubChem AID 623927; settings: Ricerca radioligand binding panel, 10 uM, % inhibition; serotonin 5-HT1A binding; stronger effect = higher value
[3] = molecular target: Adenosine receptor A1 (Homo sapiens) (UniProt P30542); assay: PubChem AID 623927; settings: Ricerca radioligand binding panel, 10 uM, % inhibition; adenosine A1 binding; stronger effect = higher value
[4] = molecular target: Alpha-1A adrenergic receptor (Homo sapiens) (UniProt P35348); assay: PubChem AID 623927; settings: Ricerca radioligand binding panel, 10 uM, % inhibition; adrenergic alpha1A binding; stronger effect = higher value
[5] = molecular target: Sigma non-opioid intracellular receptor 1 (Homo sapiens) (UniProt Q99720); assay: PubChem AID 623927; settings: Ricerca radioligand binding panel, 10 uM, % inhibition; sigma 1 receptor binding; stronger effect = higher value
[6] = molecular target: Sodium-dependent dopamine transporter (Homo sapiens) (UniProt Q01959); assay: PubChem AID 623927; settings: Ricerca radioligand binding panel, 10 uM, % inhibition; dopamine transporter DAT binding; stronger effect = higher value
[7] = molecular target: Sodium-dependent serotonin transporter (Homo sapiens) (UniProt P31645); assay: PubChem AID 623927; settings: Ricerca radioligand binding panel, 10 uM, % inhibition; serotonin transporter SERT binding; stronger effect = higher value
[8] = molecular target: Voltage-gated inwardly rectifying potassium channel KCNH2 (Homo sapiens) (UniProt Q12809); assay: PubChem AID 623927; settings: Ricerca radioligand binding panel, 10 uM, % inhibition; hERG channel binding; stronger effect = higher value
[9] = test system: norepinephrine transporter (NET) [Homo sapiens]; assay: PubChem AID 623927; settings: Ricerca radioligand binding panel, 10 uM, % inhibition; stronger effect = higher value

## O=C(Nc1cccc(Cl)c1)c1ccccn1
[1]; NMDA agonist site binding
  inhibition: 15%
[1]; NMDA phencyclidine site binding
  inhibition: 15%
[1]; phorbol ester binding
  inhibition: 21%
[1]; rolipram site (PDE4) binding
  inhibition: 17%
[1]; sigma 2 receptor binding
  inhibition: 15%
[2]
  inhibition: 16%
[3]
  inhibition: 17%
[4]
  inhibition: 16%
[5]
  inhibition: 27%
[6]
  inhibition: 31%
[7]
  inhibition: 12%
[8]
  inhibition: 0%
[9]
  inhibition of NET radioligand binding: 80%
